In patent US20260055141A1, “COMPOSITIONS AND METHODS FOR CONTROLLING FOOD INTAKE, ENERGY EXPENDITURE, AND BODY WEIGHT FOR THE TREATMENT OF OBESITY AND METABOLIC DISEASES” (The Trustees of the University of Pennsylvania, priority 2022, published 2026):
Entries after “also recorded” stand apart in the source; their conditions may differ. Non-standard residues stand in square brackets, D forms with d. No end group written: not given here.

What was measured:
[1] = Peripheral (IP) administration, food intake and body weight in DIO mice; format: in vivo, mouse; conditions: for 24 h food intake: IP 0.5 and 5 mg/kg, male HFD fed mice (FIG. 12 legend)
Method: DIO mice were administered 0.5 mg/kg or 5.0 mg/kg of either SU75-36 or SU75-37 in a vehicle by […] injection and observed over 24 hours. One group of mice was administered a vehicle as a negative control. All mice were given ad libitum access to water and a 60% HFD. […] (FIGS. 12A and 12C). […] Mice were weighed at the beginning of the experiment and 24 hours after administration. The weight change of each mouse after 24 hours was then calculated. […] (FIGS. 12B and 12D) This experiment was then repeated for SU75-37 at a higher dose (10 mg/kg). […] (FIG. 13A).

[2] = biological target: T1, human GLP-1R (21-139aa region) (Homo sapiens, UniProt P43220); experiment: Surface Plasmon Resonance (SPR) binding at hGLP-1R; conditions: for binding at hGLP-1R: Ex-4 positive and ODN negative control
T1 construct: human GLP-1R (21-139aa region); purchased rndsystems.com (R&D Systems) 10956-GL
Method: SU75-36, SU75-37, Ex-4, and ODN binding at the human GLP-1R (21-139aa region; available on the world wide web at rndsystems.com cat #10956-GL) was measured via a Nicoya Open SPR instrument using His-tagged hGLP-1R bound to an NTA-coated gold sensor (Nicoya cat #SEN-AU-100-10-NTA) using HBSS (in-house) at 20 μL/min flow rate. Data was fit via a global, one-to-one model using Nicoya OpenSPR software. In-house Ex-4 and ODN were used as the positive and negative controls, respectively.

[3] = 4th ventricle intracerebroventricular injection, food intake and body weight in DIO rats; format: in vivo, rat; conditions: for food intake compared to control: SU75-36 20, 100 or 200 μg, SU75-37 20 μg, 60% HFD, 1, 3, 6, 24 h
Method: Adult male Sprague-Dawley rats (Charles River) were individually housed under a 12 h-light: 12 h-dark cycle in a temperature and humidity-controlled satellite vivarium and had ad libitum access to water and chow (5001, LabDiet) or a 60% high fat diet (HFD): D12492, Research Diets) and when applicable had ad libitum access to kaolin pellets (K50001, Research Diets). Rats were exposed to kaolin for at least 5 days prior to measuring kaolin consumption in pica testing. Except for studies conducted in the bioDAQ, for all feeding studies rats were housed in hanging wire cages to allow for accurate measurement of food spillage. Experiments were conducted under the National Institutes for Health Guide for the Care and Use of Laboratory Animals and all procedures were approved by the Institutional Animal Care and Use Committee at the University of Pennsylvania.
For cannula implantation, rats were anesthetized by intraperitoneal injection of a mixture containing ketamine (90 mg/kg, Butler Animal Health Supply), xylazine (2.7 mg/kg, Anased), and acepromazine (0.64 mg/kg, Butler Animal Health Supply) (KAX) and then placed into a stereotaxic apparatus. Each rat was stereotaxically implanted with a guide cannula (26-ga, Plastics One) aimed at the fourth ventricle (guide cannula coordinates: on midline. 2.5 mm anterior to occipital suture, 5.2 mm ventral to skull; internal cannula aimed 7.2 mm ventral to skull) or the lateral ventricle (guide cannula coordinates: 1.5 mm lateral to midline, 0.9 mm posterior to bregma. 1.8 mm ventral to skull; internal cannula aimed 3.8 mm ventral to skull). For all cannulas, dummies (no projection beyond guide) were inserted in the guide cannula and left until infusions were performed. For all surgeries, rats received post-operative temperature support and analgesia was provided immediately following surgery and for two post-operative days (2 mg/kg meloxicam).
For all studies measuring food intake following drug treatment, central injections were given at a volume of 2 μL using a Hamilton syringe terminating in an injector tip extending 2.0 mm beyond the guide cannula. For acute treatment days, rats were food deprived for 2 hours before the dark cycle and injections were done immediately prior to the dark cycle onset. Food and kaolin intake was measured 1, 3, 6, and 24 hours after injections were completed and food crumbs were weighed and accounted for between each timepoint. Body weight was measured during injections and 24 hours after. Injection treatments were organized in a counterbalanced, within-subjects design and separated by ≥72 h. […]
Rats were weighed at the beginning of the experiment and 24 hours after administration of the GPR75 inhibitor. The weight change of each rat after 24 hours was then calculated. […]

[4] = Lateral intraventricular injection in HEPES buffer, food intake and body weight in DIO rats; format: in vivo, rat; conditions: lateral ventricle; for food intake compared to control: 60% HFD, 1, 3, 6, 24 h
Method: Diet induced obese (DIO) rats (n=4) were administered 150 μg/3 μL SU75-36 in a vehicle or in a HEPES buffer by lateral intraventricular injection and observed over 24 hours. One group of rats was administered a Vehicle of 50% DMSO in HEPES as a negative control. All rats were given ad libitum access to water and 60% HFD. […] (FIG. 10A). […] Rats were weighed at the beginning of the experiment and 24 hours after administration. The weight change of each rat after 24 hours was then calculated. […] (FIG. 10B). In a separate experiment, diet induced obese (DIO) rats (n=4) were administered 133 μg/2 μL SU75-37 in a HEPES buffer by lateral intraventricular injection and observed over 24 hours. One group of rats was administered a vehicle without a GPR75 inhibitor as a negative control. All rats were given ad libitum access to water and a 60% high fat diet (HFD). SU75-37 was optimized using an acetate salt precipitation rather than a TFA salt precipitation to maintain a neutral >4.5 pH in HEPES buffer solution. The food intake of each rat was observed 1, 3, 6, and 24 hours after administration. […] Rats were weighed at the beginning of the experiment and 24 hours after administration. The weight change of each rat after 24 hours was then calculated. […] (FIG. 11B).

[5] = 5 mg/kg peripheral injection, DIO mice, 60% HFD, 3 and 24 h

## H[dS]QGTFTSDLSKYLEEEVREFIWLKNGGPSDVNTDRPGLLDLK-NH2 [SU75-36]
[1]; [5]
  food intake compared to control: significant decrease in food intake
[1]; 0.5 or 5.0 mg/kg peripheral injection, DIO mice
  body weight change after 24 hours: significant decrease in weight
[1]
  24 h food intake: suppresses
[2]
  binding at hGLP-1R: poor binding
[2]; His-tagged hGLP-1R on NTA sensor, HBSS
  Kd: 182 µM
[3]; 200 μg, 60% HFD
  food intake compared to any of the other groups: further decrease
[3]
  food intake compared to control: significant decrease in food intake
[3]; any amount (20, 100, 200 μg), 60% HFD
  body weight change after 24 hours: significant decrease in weight
[4]; 150 μg/3 μL in HEPES buffer, DIO rats
  food intake compared to any of the other groups: further decrease
[4]; 150 μg/3 μL in vehicle (50% DMSO in HEPES) or HEPES buffer, DIO rats
  food intake compared to control: significant decrease in food intake
[4]; 150 μg/3 μL in vehicle (50% DMSO in HEPES) or HEPES buffer, DIO rats, listed as 36
  food intake compared to control: suppresses
[4]; 150 μg/3 μL with HEPES buffer, DIO rats
  body weight change after 24 hours compared to any other of the groups: further decrease
[4]; 150 μg/3 μL, DIO rats
  body weight change after 24 hours: significant decrease in weight

## TFTSDLSKYLEEEVREFIWLKNGGPSDVNTDRPGLLDLK-NH2 [SU75-37]
[1]; [5]
  food intake compared to control: significant decrease in food intake
[1]; IP 10 mg/kg, HFD fed mice
  body weight change after 24 hours: significant decrease in weight
[1]; IP 10 mg/kg, HFD fed mice, 10 mg/kg
  food intake compared to control: significant decrease in food intake
[1]; IP 10 mg/kg, HFD fed mice, listed as 37, 10 mg/kg
  food intake compared to control: suppresses
[1]
  24 h food intake: suppresses
[2]
  binding at hGLP-1R: did not bind; also recorded: does not bind
[3]
  food intake compared to control: significant decrease in food intake
[4]; 133 μg/2 μL in HEPES buffer, acetate salt precipitation, DIO rats
  food intake compared to control: significant decrease in food intake
[4]; 133 μg/2 μL in HEPES buffer, DIO rats
  body weight change after 24 hours: significant decrease in weight
[4]; 150 μg/3 μL in HEPES buffer, male HFD fed rats (FIG. 11 legend)
  24 h food intake: suppresses
